Here are results for one compound from ChEMBL document CHEMBL4823324, “Discovery of BMS-986318, a Potent Nonbile Acid FXR Agonist for the Treatment of Nonalcoholic Steatohepatitis” (ACS Med Chem Lett, 2021).

For one data set, the target named is T1, Androgen receptor (Homo sapiens, UniProt P10275).
T1 sequence (P10275 whole entry): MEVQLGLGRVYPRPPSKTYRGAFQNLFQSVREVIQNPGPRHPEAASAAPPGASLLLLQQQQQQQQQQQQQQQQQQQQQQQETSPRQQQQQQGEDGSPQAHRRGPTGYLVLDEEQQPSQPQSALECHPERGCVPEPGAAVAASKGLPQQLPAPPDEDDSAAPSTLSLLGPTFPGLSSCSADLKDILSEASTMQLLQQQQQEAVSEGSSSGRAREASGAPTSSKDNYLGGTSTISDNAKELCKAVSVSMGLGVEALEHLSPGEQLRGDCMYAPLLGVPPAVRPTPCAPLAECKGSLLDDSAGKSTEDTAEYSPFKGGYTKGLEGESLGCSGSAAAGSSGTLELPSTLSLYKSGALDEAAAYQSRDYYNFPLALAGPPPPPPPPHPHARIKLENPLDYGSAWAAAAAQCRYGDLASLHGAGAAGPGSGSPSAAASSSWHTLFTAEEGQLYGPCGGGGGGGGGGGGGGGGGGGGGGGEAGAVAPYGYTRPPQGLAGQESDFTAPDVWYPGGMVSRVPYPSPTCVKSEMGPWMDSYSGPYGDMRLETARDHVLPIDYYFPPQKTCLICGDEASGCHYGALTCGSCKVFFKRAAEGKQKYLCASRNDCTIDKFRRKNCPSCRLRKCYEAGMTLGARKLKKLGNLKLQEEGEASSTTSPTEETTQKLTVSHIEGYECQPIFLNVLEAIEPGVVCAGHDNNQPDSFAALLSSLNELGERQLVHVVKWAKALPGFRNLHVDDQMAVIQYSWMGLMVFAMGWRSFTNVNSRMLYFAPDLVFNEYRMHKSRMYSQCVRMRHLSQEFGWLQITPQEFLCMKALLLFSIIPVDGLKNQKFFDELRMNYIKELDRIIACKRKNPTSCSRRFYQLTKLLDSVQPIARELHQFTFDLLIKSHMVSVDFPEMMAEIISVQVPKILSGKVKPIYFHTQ
Kind of data set: Activation of androgen receptor (unknown origin) by fluorescence polarization based competition assay.

Data set [1] is described as follows: Half life in C57B6 mouse at 2 mg/kg, po administered as solution. The class given is ADME, organism-based. Conditions: in vivo.
In data set [2] the target is T2, Peroxisome proliferator-activated receptor delta (Homo sapiens, UniProt Q03181).
T2 sequence (Q03181 whole entry): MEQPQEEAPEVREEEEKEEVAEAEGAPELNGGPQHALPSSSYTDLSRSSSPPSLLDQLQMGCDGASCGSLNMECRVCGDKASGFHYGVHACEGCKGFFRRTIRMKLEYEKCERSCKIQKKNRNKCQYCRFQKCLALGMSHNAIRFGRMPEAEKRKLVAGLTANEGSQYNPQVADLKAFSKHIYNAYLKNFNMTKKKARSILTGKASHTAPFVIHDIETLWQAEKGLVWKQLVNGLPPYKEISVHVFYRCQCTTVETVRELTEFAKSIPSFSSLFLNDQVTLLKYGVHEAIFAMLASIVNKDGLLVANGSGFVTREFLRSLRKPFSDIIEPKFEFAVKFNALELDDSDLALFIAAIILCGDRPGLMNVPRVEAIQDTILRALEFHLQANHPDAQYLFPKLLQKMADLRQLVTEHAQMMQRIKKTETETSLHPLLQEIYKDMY
The experiment in a line: Activation of PPARdelta LBD (unknown origin) co-expressed with Gal4UAS-luciferase reporter in HEK293 cells incubated for 24 hrs by Steady-Glo luciferase reporter gene based luminescence analysis. It counts as cell-based. In general terms: A reporter such as luciferase makes a cellular process visible.

Data set [3] can be described thus: Metabolic stability in human liver microsomes assessed as half life. It counts as ADME, Microsome. In general terms: Microsomes from liver hold many membrane-bound enzymes, among them those of drug oxidation.
Data set [4] can be described thus: Cmax in C57B6 mouse at 2 mg/kg, po administered as suspension. The class given is ADME, organism-based. Details: route oral, dose 2 mg/kg. As to conditions: in vivo.
A further data set deals with Cytochrome P450 3A4 (Homo sapiens, UniProt P08684). Kind of data set: Inhibition of CYP3A4 (unknown origin) expressed in baculovirus infected insect supersomes preincubated for 15 mins followed by addition of NADPH regenerating system by fluorescence based analysis. It counts as ADME.
A short description of data set [5]: Volume of distribution at steady state in C57B6 mouse at 1 mg/kg, iv. The class given is ADME, organism-based. Conditions: in vivo, read-out: Vdss.
Data set [6] in a line: Oral bioavailability in C57B6 mouse at 2 mg/kg administered as solution. It counts as ADME, organism-based. As to conditions: in vivo.
For a further data set, the target named is T3, Progesterone receptor (Homo sapiens, UniProt P06401).
T3 sequence (P06401 whole entry): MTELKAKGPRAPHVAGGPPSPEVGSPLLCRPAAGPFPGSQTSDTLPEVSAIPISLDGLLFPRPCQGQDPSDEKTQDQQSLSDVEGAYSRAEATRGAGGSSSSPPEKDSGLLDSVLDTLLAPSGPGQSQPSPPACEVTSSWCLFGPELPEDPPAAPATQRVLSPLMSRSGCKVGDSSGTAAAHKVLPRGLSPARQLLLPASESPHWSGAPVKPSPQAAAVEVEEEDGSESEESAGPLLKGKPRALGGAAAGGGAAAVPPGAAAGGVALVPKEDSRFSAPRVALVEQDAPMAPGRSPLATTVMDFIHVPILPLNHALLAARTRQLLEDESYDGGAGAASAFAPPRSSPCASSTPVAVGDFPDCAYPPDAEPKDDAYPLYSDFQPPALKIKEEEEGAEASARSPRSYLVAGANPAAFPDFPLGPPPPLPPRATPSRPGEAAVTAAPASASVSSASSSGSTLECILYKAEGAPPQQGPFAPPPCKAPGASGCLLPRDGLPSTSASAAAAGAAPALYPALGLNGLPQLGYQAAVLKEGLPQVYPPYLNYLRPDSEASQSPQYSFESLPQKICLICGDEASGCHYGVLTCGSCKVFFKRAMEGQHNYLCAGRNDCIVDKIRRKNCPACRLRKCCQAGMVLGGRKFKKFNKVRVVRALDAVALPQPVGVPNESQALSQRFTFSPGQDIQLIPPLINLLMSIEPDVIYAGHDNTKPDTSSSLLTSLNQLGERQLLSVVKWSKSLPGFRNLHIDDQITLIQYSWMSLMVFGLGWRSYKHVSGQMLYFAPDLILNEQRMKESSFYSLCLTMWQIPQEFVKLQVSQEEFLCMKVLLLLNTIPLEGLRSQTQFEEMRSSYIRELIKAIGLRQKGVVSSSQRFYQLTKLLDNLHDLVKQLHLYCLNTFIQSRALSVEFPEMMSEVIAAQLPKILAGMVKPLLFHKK
Kind of data set: Activation of progesterone receptor (unknown origin) by fluorescence polarization based competition assay.

The nature of data set [7]: Cmax in C57B6 mouse at 1 mg/kg, iv. Set-up: route intravenous, dose 1 mg/kg. The class given is ADME, organism-based. As to conditions: in vivo.

Chain of Cytochrome P450 3A4 (P08684 whole entry): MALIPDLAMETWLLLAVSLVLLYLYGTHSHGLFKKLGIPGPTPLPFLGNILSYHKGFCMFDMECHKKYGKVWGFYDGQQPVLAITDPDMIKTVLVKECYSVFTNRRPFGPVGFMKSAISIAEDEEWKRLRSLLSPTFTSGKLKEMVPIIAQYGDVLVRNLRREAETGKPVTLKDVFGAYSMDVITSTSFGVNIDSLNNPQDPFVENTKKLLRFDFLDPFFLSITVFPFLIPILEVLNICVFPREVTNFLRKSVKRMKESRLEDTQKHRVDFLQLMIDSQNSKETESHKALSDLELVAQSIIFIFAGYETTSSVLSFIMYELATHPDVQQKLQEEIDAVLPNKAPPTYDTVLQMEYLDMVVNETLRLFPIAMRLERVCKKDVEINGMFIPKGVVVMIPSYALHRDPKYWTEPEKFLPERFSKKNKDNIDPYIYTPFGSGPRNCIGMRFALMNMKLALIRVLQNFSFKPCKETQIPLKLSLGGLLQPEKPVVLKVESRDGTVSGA

Take `O=C(O)c1cc(C(F)(F)F)c2cc(N3CCC4(C=C(c5c(-c6c(Cl)cncc6Cl)noc5C5CC5)C4)CC3)ccc2n1`: the EC50 (at Androgen receptor; in [2]; on Progesterone receptor) was greater than 40 µM each time. Moreover, the half-life (commonly the time needed for the level to fall by half in the phase considered) was 2.3 h in data set [1] and greater than 2 h in [3]. Moreover, the values for the peak concentration (Cmax) in data set [4] and in data set [7] were 1030 nM and 1490 nM, respectively. The IC50 – broadly, the concentration at which inhibition is half-maximal – at Cytochrome P450 3A4 was greater than 40 µM. In data set [5], the Vd turned out to be 0.56 L/kg. Besides, in data set [6], the bioavailability (in general, dose-corrected exposure relative to a reference, in per cent) worked out at 36%.
